pKa data for 132 compounds are collected here from the pKa sets of Baltruschat and Czodrowski (2020).

Structures are written as SMILES.

For the first data set the following is noted: acidic group.
As to `Nc1ccc(S(=O)(=O)Nc2ccn(-c3ccccc3[N+](=O)[O-])n2)cc1`, the pKa stood at 7.

Turning to `O=C(O)[C@@H]1CCCC[C@@H]1O`, the pKa was determined as 4.8. Still for that read-out and setting: next, `O=[N+]([O-])c1ccc(-c2ccc(O)cc2)cc1`: 9.01; `COc1cccc([N+](=O)[O-])c1O`: 6.74. Regarding `OC(c1ccccc1)c1ccccn1` (stereo not drawn), the pKa was 12.8. For `N#CCC[n+]1ccc(C(N)=O)cc1.[Br-]`, the pKa is 13.3. On to `[O-]\N=C1/CCCC(=N\O)/C1=N/[O-]`, for which the pKa came to 12.2. Turning to `O=C(O)c1ccc(/N=C/c2ccccc2)cc1`, the pKa turned out to be 4.47.

Take `CC(C)OO`: the pKa turned out to be 12.1. The compound `[NH3+]c1ccc(O[C@H]2O[C@@H](C(=O)O)[C@H](O)[C@@H](O)[C@@H]2O)cc1` displayed a pKa of 3.1. On the same count and under the same terms, under `Cc1cc(Cc2cc([N+](=O)[O-])ccc2O)cc(C)c1O` stands 7.12; under `CC(=O)[n+]1ccc(N)cc1`, 9.15.

In turn, `CC/C([N+](=O)[O-])=[N+](/[O-])O` returned a pKa of 4.1.

In turn, `Cc1cc(C)c(C(C)C)cc1O` returned a pKa of 10.8. `CCCOC(=O)c1ccc(O)cc1` came in with a pKa of 8.3.

Compound `[O-]c1ccc(-c2ccc(O)cc2)cc1` came in with a pKa of 14.1. The same measure, in the same setting: next, `OCCN1CCN(CCO)CC1`: 7.75; `O=C1C=CC(=Nc2ccc(O)cc2)C=C1`: 8.1; `N#CC(C#N)=NNc1ccccc1C(=O)O`: 6.7. For the compound `CC(=O)N1CSC[C@H]1C(=O)O`, the pKa is 2.94.

`O=C1CC(=O)CC2(CCCCC2)C1` had a pKa of 5.2. The same measure, in the same setting: under `CNCC(N)=O` stands 8.35; under `O=C(O)c1cc([N+](=O)[O-])ccc1CO`, 3.14; under `COC(=O)c1ccc(NC=S)cc1`, 10.9. The compound `O=C([O-])[C@H](NCC[NH2+][C@@H](C(=O)[O-])c1ccccc1[O-])c1ccccc1O` had a pKa of 10.9. `O=C(O)Cc1ccc(Cl)s1` registered a pKa of 3.89. Still for that read-out and setting: under `CCOC(=O)/C(=N\O)C(C)=O` stands 7.2. Still for that read-out and setting: next, `CC(c1ccc([N+](=O)[O-])cc1)[N+](=O)[O-]` (stereo not drawn): 6.51.

`CCC(=O)c1cc(C(C)=O)n[nH]1` registered a pKa of 9.05. `Cc1nc(NS(=O)(=O)c2ccc(N)cc2)sc1C`: the pKa was determined as 6.97. In the case of `Cc1cc(OS(=O)(=O)[O-])c2oc(-c3cc4ccc(O)cc4oc3=O)nc2c1`, the pKa amounted to 6.8. In turn, `NC1=[NH+][C@H]2C[C@@H](N1)[NH2+][C@@H]2C(=O)O` showed a pKa of 1.3. Compound `O=C(O)CCCC(=O)NOCc1ccccc1` gave a pKa of 4.7.

In turn, `COc1cc(C[NH+](C)C)c(O)c(C[NH+](C)C)c1` registered a pKa of 6.33.

The compound `[NH3+]CCCCCCCCCCCC(=O)O` showed a pKa of 4.65. Consider `C[NH+](C)Cc1cccc(NC(=O)/C=N/O)c1`, for which the pKa came out at 8.28. In turn, `CCOC(=O)C(Cc1ccc([N+](=O)[O-])cc1)C(C)=O` (stereo not drawn) came in with a pKa of 11.1. The compound `O=C1Oc2ccccc2C(=O)C1CC1C(=O)Oc2ccccc2C1=O` (stereo not drawn) yielded a pKa of 5.5. For `CC(=O)c1ccc(C(=O)O)cc1`, the pKa worked out at 3.72. On the same count and under the same terms, under `CC[NH+](C)CCCNC(=O)/C=N/O` stands 8.72; under `N#Cc1cccc(NS(=O)(=O)c2ccccc2)c1`, 7.15; under `CC(=O)S`, 3.71. `Cc1nc2c(O)ccc(O)c2n1C` yielded a pKa of 9.75. For `Nc1ccc(S(=O)(=O)Nc2cccnc2)cc1`, the pKa came out at 7.89.

Regarding `CC[NH+](CC)Cc1cccc(F)c1O`, the pKa is 7.26. On the same count and under the same terms, under `CC(C)=CC(=O)/C=N/O` stands 8.9. On the same count and under the same terms, under `Cc1cccc(C)c1NC(=S)c1ccccc1` stands 10.8; under `O=C(O)c1cc2ccccc2[nH]1`, 3.79. `CC(=O)c1ccc(C(=O)O)s1`: the pKa worked out at 3.

`Cc1cc([C@@H]([NH3+])CO)c(O)c([C@@H]([NH3+])CO)c1` registered a pKa of 6.3.

The compound `O=S(=O)(NBr)c1ccccc1` came in with a pKa of 4.95.

`CC(O)CC(=O)O` (stereo not drawn) yielded a pKa of 4.5. `Cc1nc2c(n1C)C(=O)c1nc[nH+]c(O)c1C2=O` registered a pKa of 1.15. For the compound `CC(C)(C)OOCCC(=O)O`, the pKa is 4.36. Compound `CC(C)Cc1cnc(CC(C)C)c(O)[nH+]1` gave a pKa of 1.7. Regarding `CC(C)S(=O)O`, the pKa was determined as 2.3. Same read-out and setting: next, `CC(=O)[n+]1ccc(C)cc1`: 6.15; `O=CC1CCCC1=O` (stereo not drawn): 5.83. On to `COP(=O)([O-])NS(=O)(=O)c1ccccc1`, for which the pKa was determined as 6.25. Take `O=C(O)[C@@H]1O[C@H](Oc2ccc3oc4cccc(O)c4c(=O)c3c2)[C@@H](O)[C@H](O)[C@H]1O`: the pKa was found to be 3.94. On the same count and under the same terms, under `CNc1nnc(S(N)(=O)=O)s1` stands 7.8.

Regarding `On1nnc2c(Cl)cccc21`, the pKa is 3.9. As for `COc1c(Cl)cc(Cl)c(O)c1C(=O)NC1CC[NH+](C)CC1`, the pKa was 6.02. On the same count and under the same terms, next, `CCOC(=O)C1(CCC(=O)O)CCC(=O)NC1=O` (stereo not drawn): 4.35. For `COc1cc(C)nc(-n2nc(C)cc2O)n1`, the pKa amounted to 6.9. On the same count and under the same terms, next, `C[NH+](C)Cc1cc([N+](=O)[O-])ccc1O`: 5.75; `O=C(O)[C@@H]1O[C@H](Oc2ccc3[nH+]cccc3c2)[C@@H](O)[C@H](O)[C@H]1O`: 3. The compound `CNc1nc(O)[n+]([C@@H]2C[C@@H](O)[C@H](CO)O2)cc1C` displayed a pKa of 4.04.

`Cc1ccc(C(=O)C(=O)O)cc1C` came in with a pKa of 1.36.

On to `Oc1cc2ccccc2cc1C1=[NH+]CCN1`, for which the pKa came out at 7.01.

Still in this data set, the particulars now being: basic group.
Regarding `CCn1nnc(CC(=O)O)n1`, the pKa was 3.45.

The compound `O=C([O-])[C@@H]1CSCN1` had a pKa of 6.14. `CCCCCCN(CC(O)CC)CC(O)CC` (stereo not drawn) had a pKa of 8.6.

Turning to `C1CCc2c(nnc3c2CCCC3)C1`, the pKa was determined as 6.12. On to `C#CCCN`, for which the pKa worked out at 9.23.

`Nc1nc2cc3c(cc2[nH]1)CCCC3` registered a pKa of 7.69. Compound `Cc1ccccc1NC(=N)Nc1ccccc1C` returned a pKa of 9.67. On the same count and under the same terms, next, `OC(c1ccccc1)c1ccccn1` (stereo not drawn): 4.44; `COc1nc2ccccc2c2ccccc12`: 2.38; `c1ccc(C2CCCN2)cc1` (stereo not drawn): 9.6. In turn, `O=C(O)c1ccc(/N=C/c2ccccc2)cc1` came in with a pKa of 1.97. With `CN1CCC2=C(C1)C(c1ccccc1)c1ccccc12` (stereo not drawn), the pKa was 8.29. Still for that read-out and setting: under `C1CNCCNCCCNCCNC1` stands 11.1; under `[O-]c1ccnc([O-])c1`, 13; under `Cc1cscn1`, 3.14. The compound `CCCCN1CCCC1C` (stereo not drawn) displayed a pKa of 10.7. For the compound `C[C@@H]1CCC[C@H](C)N1`, the pKa came out at 11.

As to `Cc1cccc(NCCS)c1`, the pKa was 4.68.

As for `C[NH+](C)CCNc1c2ccccc2nc2cccc([N+](=O)[O-])c12`, the pKa came out at 4.9. Consider `C[C@H]1CC[C@@H]2CCCN21`, for which the pKa is 11.7.

The compound `O=C1NCCN1` showed a pKa of 3.09. In turn, `N#CC(C#N)=NNc1ccccc1C(=O)O` yielded a pKa of -0.96. On to `c1ccc(-c2ncc[nH]2)nc1`, for which the pKa turned out to be 5.46. `OC1(c2cc3ccccc3o2)CN2CCC1CC2` (stereo not drawn) showed a pKa of 8.84. For `CC(C)NCC(O)c1cccc(F)c1` (stereo not drawn), the pKa amounted to 9.48.

As to `Cn1c(=O)c2[nH]cnc2n(C)c1=O`, the pKa turned out to be 8.64. Regarding `O=Cc1cccnc1`, the pKa was 3.73.

Regarding `NCCc1ccc([N+](=O)[O-])cc1`, the pKa is 9.42. `CCN(CC)CCSC` yielded a pKa of 9.62.

For the compound `c1ccc2scnc2c1`, the pKa amounted to 1.38. As for `Cc1cnc2ccccc2c1`, the pKa amounted to 5.15. `[O-]c1c(Cl)cc(Cl)c(Cl)c1CN1CCOCC1` yielded a pKa of 8.83. `C#CCNc1ccccc1`: the pKa stood at 3.06.

`CCCc1nc2cc(OCC)ccc2[nH]1` yielded a pKa of 6.12. `CCCN(CC(O)CC)CC(O)CC` (stereo not drawn) showed a pKa of 9. The same measure, in the same setting: next, `Nc1ccc2c(Cl)c3ccccc3nc2c1`: 6.74. `CN1[C@@H](CC(=O)c2ccccc2)CCC[C@H]1C[C@@H](O)c1ccccc1` gave a pKa of 8. In turn, `Nc1nccc(-c2csc(N)[nH+]2)n1` returned a pKa of 2.6. `C/N=C(/NC)N(C)C` gave a pKa of 13.9.

The compound `C(=C\C[NH+]1CCCCC1)/CN1CCCCC1` showed a pKa of 7.9. For the compound `CC1=C(CC(C)NCC(O)c2ccc(C)cc2)CCC1(C)C` (stereo not drawn), the pKa was determined as 8.71. As to `CNC(=O)C1CCCCN1` (stereo not drawn), the pKa worked out at 8.8. Still for that read-out and setting: next, `Nc1ncc2ccccc2n1`: 4.8; `Nc1ccc(C(O)(c2ccccc2)c2ccc(N)cc2)cc1`: 5.83; `CC(C)[NH+]1CCC(NN)CC1`: 5.75. `Cc1nc2c(O)ccc(O)c2n1C` gave a pKa of 6.47. Turning to `C[Si](C)(C)CNc1ccccc1`, the pKa amounted to 5.3. On the same count and under the same terms, under `CCC1CSC(C(C)C)=N1` (stereo not drawn) stands 5.28; under `[S-]c1ccnc2ccccc12`, 8.83; under `C1CCN(CCN2CCCC2)C1`, 9.47. Compound `Nc1ccc(S(=O)(=O)Nc2cccnc2)cc1` came in with a pKa of 3. On the same count and under the same terms, next, `CN(C)c1ccc(/C=N/c2ncc3[nH+]c[nH]c3n2)cc1`: 3.82. `CN[C@H]1C(C)[C@@H]1[NH2+]C` (stereo partly drawn) came in with a pKa of 5.68. Turning to `C[n+]1c([O-])ccnc1[O-]`, the pKa turned out to be 9.94. In turn, `O=C(O)c1cc2ccccc2[nH]1` gave a pKa of -0.57. For the compound `CCCc1ccc([C@@H]2CCC[NH+]2C)cn1`, the pKa was 3.65. `CCN(C)NC` gave a pKa of 6.85. `[O-]c1ccnc2ccccc12` displayed a pKa of 11.2. The same measure, in the same setting: under `COc1ccc2c3c1O[C@H]1[C@@H](O)C=C[C@H]4[C@@H]([C@H]2O)N(C)CC[C@@]341` stands 7.12; under `c1ccc(NC2CCCCC2)cc1`, 5.6. The same measure, in the same setting: next, `Cc1ccc(-c2nnc(-c3ccccc3)o2)cc1`: 1.81; `C#CC(C)(C(C)C)N(C)C(C)C` (stereo not drawn): 8.7. `CC1CCN(O)C1(C)C` (stereo not drawn) came in with a pKa of 5.9. `Cc1csc2nccn12` returned a pKa of 5.36. Compound `Cc1ccc2c(c1)N1CC[NH+]2CC1` yielded a pKa of 2.4. On the same count and under the same terms, next, `CC(CN(C)C)[NH+](C)C` (stereo not drawn): 5.4; `Nc1ncnc2ncn([C@H]3O[C@H](CO)[C@@H](O)[C@H]3O)c12`: 3.9; `c1ccc(Cn2ccnc2)cc1`: 6.66.

What is called pKa is the negative logarithm of the acid dissociation constant. A low value points to a stronger acid or weaker base.
